pIC50, pKd: −log10 of the molar value.
Assays:
[1] = test system: U937 human histiocytic leukemia cell line; experiment: Inhibition of TSQ induced necroptosis in U937 cells (CellTitre-Glo); details: Homo sapiens, U-937, TSQ cocktail (TNF, Smac mimetic, Q-VD-OPh), 48 hours, read-out: Inhibition of TSQ-induced necroptosis (IC50 cell-based assay)
Method: Cellular Assay: Screening Compounds for Inhibition of TSQ Induced Necroptosis, 384 Well Plate Format.
(§1) • Cell Line ID: U937 human histiocytic leukemia cell line. • Cell Concentration (cells/well): Final cell density is 20000 cells per well. • Cell growth medium: HT-RPMI medium+7.4% Fetal Bovine Serum (FBS). Cells are cultured in Corning 150 cm^2 tissue culture flasks with vented caps at 37° C./5% CO2. • Incubation: Plates were incubated at 37° C./5% CO2 in a humidified incubator for 48 hours following addition of compounds and death stimuli (TSQ cocktail). • Compound concentration: 36 μM starting concentration, 1:3 dilution, 10 point • DMSO final concentration (% v/v): 0.3%. Compounds in TSQ Cocktail (T: TNF; S: Smac Mimetic; Q: Q-VD-OPh) and their Final Concentrations: • hTNF-Fc (100 ng/ml)—produced by standard procedures as shown in Bossen et al., J. Biol. Chem., 2006, 281(20), 13964-13971. • Compound A (500 nM) —Smac mimetic, Tetralogic and SYNthesis med chem • Q-VD-OPh (10 μM) —MP Biomedicals
(§2) The cellular assay was carried out according to the following steps: • 1. Each well was prepared by sequential addition of: • a. DMSO (control; columns 1-2 and 23-24) or compound in DMSO—addition was performed using acoustic transfer of nL volumes of stock compound to give final test concentrations of 36, 12, 4, 1.3, 0.44, 0.148, 0.049, 0.016, 0.005 and 0.002 μM. All wells were backfilled with DMSO to a final total volume in the well of 100 nL. • b. Following compound/DMSO addition in step (a), 40 μL of cell suspension (5×10^5 cells/mL) was added to provide a final cell concentration of 20,000 cells per well, and • c. Following cell addition in step (b), 10 μL of 5×TSQ cocktail (except to positive controls; columns 1 and 23) was added to each well. • 2. After 48 hours, plate was removed from the 37° C. incubator and equilibrated to room temperature for 45 minutes. • 3. 15 μL of room temperature CellTitre-Glo2™ (Promega™) was added to each well. • 4. Shook plates for 2 minutes (˜600 rpm) and incubated at room temperature for 15 minutes to allow signal to stabilise. • 5. Read luminescence readout on a plate reader.
Percent viability was calculated for each compound according to equation (2): […]
(§3) 10 point titration curves were fitted with the 4 parameter logistic nonlinear regression model and the IC50 reported reflect the inflection point of the curve for curve fitting.
(§4) • Assay involving the TSQ cocktail (T: TNF; S: Smac mimetic; Q: Q-VD-OPh): TSQ treatment ensures that cells specifically undergo necroptotic cell death. TNF activates the TNF receptor, Smac mimetic directs the signal away from proinflammatory signaling and toward the RIPK1/RIPK3-mediated cell death pathways, and Q-VD-OPh ensures that the apoptotic response is blocked leaving only the programmed necrosis response. The compounds' activity (solution in DMSO) tested in this TSQ-induced assay was evaluated by determining the number of viable cells in culture by measuring the amount of ATP present as measured by CelltiterGlo. • Counter screen: In parallel, all compounds were tested for their ability to affect cell viability. The same U937 cells were treated with compound in DMSO without the TSQ cocktail. This counter screen enabled evaluation of off-target effects. In this case, cell viability was measured by CelltiterGlo.

U937 cells = experiment: Counter screen: U937 cell viability without TSQ cocktail (off-target effect); design: species or system human; details: Homo sapiens, U-937, compound without TSQ cocktail, read-out: Off-target effect (IC50 cell-based assay)
Method: as §1, §2, §3, §4

human RIPK3 = human RIPK3 (Homo sapiens (Human), UniProt Q9Y572); experiment: KINOMEscan binding assay, human RIPK3; details: equilibrium dissociation constant
Sequence of human RIPK3 (Q9Y572 whole entry): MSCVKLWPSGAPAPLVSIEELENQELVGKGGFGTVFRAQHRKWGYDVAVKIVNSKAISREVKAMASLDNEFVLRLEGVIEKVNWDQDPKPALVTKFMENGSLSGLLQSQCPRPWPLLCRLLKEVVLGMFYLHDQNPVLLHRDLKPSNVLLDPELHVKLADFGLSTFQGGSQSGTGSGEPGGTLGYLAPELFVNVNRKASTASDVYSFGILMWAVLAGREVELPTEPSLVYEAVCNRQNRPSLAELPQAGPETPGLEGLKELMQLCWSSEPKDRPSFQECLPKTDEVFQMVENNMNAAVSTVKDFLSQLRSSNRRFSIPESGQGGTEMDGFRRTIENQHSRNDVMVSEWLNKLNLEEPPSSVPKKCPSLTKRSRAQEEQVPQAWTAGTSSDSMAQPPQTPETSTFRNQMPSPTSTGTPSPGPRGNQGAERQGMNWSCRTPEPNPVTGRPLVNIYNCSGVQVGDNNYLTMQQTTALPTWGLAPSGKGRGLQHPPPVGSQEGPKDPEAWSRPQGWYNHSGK
Method: (§5) Binding affinity of the test compounds for human MLKL (full length), mouse MLKL (full length), human RIPK1 and human RIPK3 was determined using the KINOMEscan™ technology developed by DiscoverX (USA; http://www.discoverx.com). The assay was conducted according to manufacturer instructions.
(§6) Kinase assays. For most assays, kinase-tagged T7 phage strains were grown in parallel in 24-well blocks in an E. coli host derived from the BL21 strain. E. coli were grown to log-phase and infected with T7 phage from a frozen stock (multiplicity of infection=0.4) and incubated with shaking at 32° C. until lysis (90-150 minutes). The lysates were centrifuged (6,000×g) and filtered (0.2 μm) to remove cell debris. The remaining kinases were produced in HEK-293 cells and subsequently tagged with DNA for qPCR detection. […] The liganded beads were blocked with excess biotin and washed with blocking buffer (SeaBlock (Pierce), 1% BSA, 0.05% Tween 20, 1 mM DTT) to remove unbound ligand and to reduce non-specific phage binding. […] All reactions were performed in polypropylene 384-well plates in a final volume of 20 μL. […] The kinase concentration in the eluates was measured by qPCR.
(§7) An 11-point 3-fold serial dilution of each test compound was prepared in 100% DMSO at 100× final test concentration and subsequently diluted to 1× in the assay (final DMSO concentration=1%). Most Kos were determined using a compound top concentration=30,000 nM.
(§8) KD for each test compound was calculated with a standard dose-response curve using the Hill equation (equation (1)): […]
(§9) The Hill Slope was set to −1.
(§10) Curves were fitted using a non-linear least square fit with the Levenberg-Marquardt algorithm.

human RIPK1 = human RIPK1 (Homo sapiens (Human), UniProt Q13546); experiment: KINOMEscan binding assay, human RIPK1; details: equilibrium dissociation constant
Sequence of human RIPK1 (Q13546 whole entry): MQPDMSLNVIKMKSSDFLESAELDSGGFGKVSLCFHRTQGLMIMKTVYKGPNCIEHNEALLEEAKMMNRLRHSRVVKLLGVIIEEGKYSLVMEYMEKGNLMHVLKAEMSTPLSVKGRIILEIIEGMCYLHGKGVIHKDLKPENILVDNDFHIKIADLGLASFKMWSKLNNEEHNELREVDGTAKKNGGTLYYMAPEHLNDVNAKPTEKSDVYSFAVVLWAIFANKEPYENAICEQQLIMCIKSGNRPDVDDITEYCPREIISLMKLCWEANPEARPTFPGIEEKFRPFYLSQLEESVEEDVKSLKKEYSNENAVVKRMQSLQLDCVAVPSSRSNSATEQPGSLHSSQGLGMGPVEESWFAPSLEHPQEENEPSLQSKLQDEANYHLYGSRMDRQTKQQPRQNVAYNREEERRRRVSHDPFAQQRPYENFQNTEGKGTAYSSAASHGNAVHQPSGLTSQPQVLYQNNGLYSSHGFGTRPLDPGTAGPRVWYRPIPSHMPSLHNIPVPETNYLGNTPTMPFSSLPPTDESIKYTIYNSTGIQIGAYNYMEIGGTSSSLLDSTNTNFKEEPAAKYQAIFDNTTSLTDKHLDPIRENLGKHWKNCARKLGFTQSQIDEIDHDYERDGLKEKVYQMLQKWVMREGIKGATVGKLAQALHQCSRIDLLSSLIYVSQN
Method: as §5, §6, §7, §8, §9, §10

human MLKL (full length) = human MLKL (full length) (Homo sapiens (Human), UniProt Q8NB16); experiment: KINOMEscan binding assay, human MLKL (full length); details: equilibrium dissociation constant
Sequence of human MLKL (full length) (Q8NB16 whole entry): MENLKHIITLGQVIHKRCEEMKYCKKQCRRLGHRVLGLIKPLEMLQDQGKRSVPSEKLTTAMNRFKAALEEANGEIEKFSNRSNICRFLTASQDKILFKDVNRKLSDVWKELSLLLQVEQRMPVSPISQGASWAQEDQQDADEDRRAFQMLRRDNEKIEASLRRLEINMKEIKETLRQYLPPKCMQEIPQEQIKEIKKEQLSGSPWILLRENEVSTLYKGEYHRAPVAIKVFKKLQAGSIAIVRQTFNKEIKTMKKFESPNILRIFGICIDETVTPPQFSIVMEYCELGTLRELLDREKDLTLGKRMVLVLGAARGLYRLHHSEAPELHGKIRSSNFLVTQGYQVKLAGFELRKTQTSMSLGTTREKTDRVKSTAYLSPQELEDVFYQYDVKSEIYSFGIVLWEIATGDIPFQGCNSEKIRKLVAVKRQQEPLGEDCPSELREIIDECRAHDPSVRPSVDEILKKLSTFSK
Method: as §5, §6, §7, §8, §9, §10

Structure (SMILES): CCS(=O)(=O)Nc1ccc(-c2nn(C)c3c(-c4cccnc4)cnc(N)c23)cc1OCc1ccc(F)cc1 [Compound 1, N-(4-(4-amino-1-methyl-7-(pyridin-3-yl)-1H-pyrazolo[4,3-c]pyridin-3-yl)-2-((4-fluorobenzyl)oxy)phenyl)ethanesulfonamide]
- pIC50 [1]: 5.00 to 6.00
- pIC50 (U937 cells): < 5.00
- pKd (human RIPK3): < 5.00
- pKd (human RIPK1): < 5.00

Structure (SMILES): Cn1nc(-c2ccc(NS(=O)(=O)C(F)F)c(OCc3ccc(F)cc3)c2)c2c(N)ncc(-c3cnn(CCO)c3)c21 [Compound 12, N-(4-(4-amino-7-(1-(2-hydroxyethyl)-1H-pyrazol-4-yl)-1-methyl-1H-pyrazolo[4,3-c]pyridin-3-yl)-2-((4-fluorobenzyl)oxy)phenyl)-1,1-difluoromethanesulfonamide]
- pIC50 [1]: 5.00 to 6.00
- pIC50 (U937 cells): < 5.00

Structure (SMILES): Cn1nc(-c2ccc(NS(=O)(=O)C(F)F)c(OCc3ccc(F)cc3)c2)c2c(N)ncc(-c3ccncc3)c21 [Compound 14, N-(4-(4-amino-1-methyl-7-(pyridin-4-yl)-1H-pyrazolo[4,3-c]pyridin-3-yl)-2-((4-fluorobenzyl)oxy)phenyl)-1,1-difluoromethanesulfonamide]
- pIC50 [1]: 5.00 to 6.00
- pIC50 (U937 cells): < 5.00

Structure (SMILES): Cc1cnccc1-c1cnc(N)c2c(-c3ccc(NS(=O)(=O)C(F)F)c(O[C@@H](C)c4ccc(F)cc4)c3)nn(C)c12 [Compound 32, (S)-N-(4-(4-amino-1-methyl-7-(3-methylpyridin-4-yl)-1H-pyrazolo[4,3-c]pyridin-3-yl)-2-(1-(4-fluorophenyl)ethoxy)phenyl)-1,1-difluoromethanesulfonamide]
- pIC50 [1]: 5.00 to 6.00
- pIC50 (U937 cells): < 5.00

Structure (SMILES): CCS(=O)(=O)Nc1ccc(-c2cccc3[nH]nc(N)c23)cc1OCc1ccc(F)cc1 [Compound 62, N-(4-(3-Amino-1H-indazol-4-yl)-2-((4-fluorophenyl)methoxy)phenyl)ethane-1-sulfonamide]
- pIC50 [1]: 5.00 to 6.00
- pIC50 (U937 cells): < 5.00

Structure (SMILES): C[C@H](Oc1cc(-c2nn(C)c3c(-c4cnn(C5CCOCC5)c4)cnc(N)c23)ccc1NS(=O)(=O)C(F)F)c1ccccc1F [Compound 118, (S)-N-(4-(4-amino-1-methyl-7-(1-(tetrahydro-2H-pyran-4-yl)-1H-pyrazol-4-yl)-1H-pyrazolo[4,3-c]pyridin-3-yl)-2-(1-(2-fluorophenyl)ethoxy)phenyl)-1,1-difluoromethanesulfonamide]
- pKd (human RIPK3): < 5.00
- pKd (human RIPK1): < 5.00
- pKd (human MLKL (full length)): 7.00 to 9.00

Structure (SMILES): C[C@H](Oc1cc(-c2nn(C)c3c(-c4cnn(C5CCOCC5)c4)cnc(N)c23)ccc1NS(=O)(=O)N(C)C)c1ccc(F)cc1 [Compound 124]
- pKd (human RIPK3): < 5.00
- pKd (human RIPK1): < 5.00
- pKd (human MLKL (full length)): 5.00 to 7.00

Structure (SMILES): C[C@H](Oc1cc(-c2nn(C)c3c(-c4cnn(C5CCOCC5)c4)cnc(N)c23)ccc1NS(=O)(=O)Cc1ccccc1)c1ccc(F)cc1 [Compound 125, (S)-N-(4-(4-amino-1-methyl-7-(1-(tetrahydro-2H-pyran-4-yl)-1H-pyrazol-4-yl)-1H-pyrazolo[4,3-c]pyridin-3-yl)-2-(1-(4-fluorophenyl)ethoxy)phenyl)-1-phenylmethanesulfonamide]
- pKd (human RIPK3): < 5.00
- pKd (human RIPK1): < 5.00
- pKd (human MLKL (full length)): 7.00 to 9.00

Structure (SMILES): COc1ccc([C@H](C)Oc2cc(-c3nn(C)c4c(-c5cnn(C6CCOCC6)c5)cnc(N)c34)ccc2NS(=O)(=O)C(F)F)cc1 [Compound 129, (S)-N-(4-(4-amino-1-methyl-7-(1-(tetrahydro-2H-pyran-4-yl)-1H-pyrazol-4-yl)-1H-pyrazolo[4,3-c]pyridin-3-yl)-2-(1-(4-methoxyphenyl)ethoxy)phenyl)-1,1-difluoromethanesulfonamide]
- pIC50 [1]: 6.00 to 8.00
- pIC50 (U937 cells): < 5.00

Structure (SMILES): Cn1nc(-c2ccc(NS(=O)(=O)C(F)F)c(OCc3cccc(Cl)c3)c2)c2c(N)ncc(-c3cnn(C4CCOCC4)c3)c21 [Compound 130, N-(4-(4-amino-1-methyl-7-(1-(tetrahydro-2H-pyran-4-yl)-1H-pyrazol-4-yl)-1H-pyrazolo[4,3-c]pyridin-3-yl)-2-((3-chlorobenzyl)oxy)phenyl)-1,1-difluoromethanesulfonamide]
- pKd (human RIPK3): < 5.00
- pKd (human RIPK1): < 5.00
- pKd (human MLKL (full length)): > 9.00

Structure (SMILES): Cn1nc(-c2ccc(NS(=O)(=O)C(F)F)c(OCc3ccc(Cl)cn3)c2)c2c(N)ncc(-c3cnn(C4CCOCC4)c3)c21 [Compound 136, N-(4-(4-amino-1-methyl-7-(1-(tetrahydro-2H-pyran-4-yl)-1H-pyrazol-4-yl)-1H-pyrazolo[4,3-c]pyridin-3-yl)-2-((5-chloropyridin-2-yl)methoxy)phenyl)-1,1-difluoromethanesulfonamide]
- pIC50 [1]: 6.00 to 8.00
- pIC50 (U937 cells): < 5.00

Structure (SMILES): Cn1nc(-c2ccc(NS(=O)(=O)C(F)F)c(OCc3nccs3)c2)c2c(N)ncc(-c3cnn(C4CCOCC4)c3)c21 [Compound 143, N-(4-(4-amino-1-methyl-7-(1-(tetrahydro-2H-pyran-4-yl)-1H-pyrazol-4-yl)-1H-pyrazolo[4,3-c]pyridin-3-yl)-2-(thiazol-2-ylmethoxy)phenyl)-1,1-difluoromethanesulfonamide]
- pKd (human RIPK3): < 5.00
- pKd (human RIPK1): < 5.00
- pKd (human MLKL (full length)): > 9.00

Structure (SMILES): CC(C)Oc1cc(-c2nn(C)c3c(-c4cnn(C5CCOCC5)c4)cnc(N)c23)ccc1NS(=O)(=O)C(F)F [Compound 144, N-(4-(4-amino-1-methyl-7-(1-(tetrahydro-2H-pyran-4-yl)-1H-pyrazol-4-yl)-1H-pyrazolo[4,3-c]pyridin-3-yl)-2-isopropoxyphenyl)-1,1-difluoromethanesulfonamide]
- pKd (human RIPK3): < 5.00
- pKd (human RIPK1): < 5.00
- pKd (human MLKL (full length)): > 9.00

Structure (SMILES): Cn1nc(-c2ccc(NS(=O)(=O)C(F)F)c(OCc3ncco3)c2)c2c(N)ncc(-c3cnn(C4CCOCC4)c3)c21 [Compound 151, N-(4-(4-amino-1-methyl-7-(1-(tetrahydro-2H-pyran-4-yl)-1H-pyrazol-4-yl)-1H-pyrazolo[4,3-c]pyridin-3-yl)-2-(oxazol-2-ylmethoxy)phenyl)-1,1-difluoromethanesulfonamide]
- pKd (human RIPK3): < 5.00
- pKd (human RIPK1): < 5.00
- pKd (human MLKL (full length)): > 9.00

Structure (SMILES): C[C@H](Oc1cc(-c2nn(C)c3c(-c4cnn(C5CCC(C(=O)O)CC5)c4)cnc(N)c23)ccc1NS(=O)(=O)C(F)F)c1ccc(F)cc1 (stereo partly drawn) [Compound 173, 4-(4-{4-amino-3-[4-(difluoromethanesulfonamido)-3-[(1S)-1-(4-fluorophenyl)ethoxy]phenyl]-1-methyl-1H-pyrazolo[4,3-c]pyridin-7-yl}-1H-pyrazol-1-yl)cyclohexane-1-carboxylic acid]
- pIC50 [1]: 5.00 to 6.00
- pIC50 (U937 cells): < 5.00
